The values below are quoted from earlier work in patent US20230070788A1, “METHOD FOR DYEING KERATIN MATERIAL, COMPRISING THE USE OF AN ORGANIC C1-C6 ALKOXY SILANE AND A COPOLYMER OF (METH) ACRYLIC ACID AND MALEIC ACID (ANHYDRIDE)” (Henkel AG & Co. KGaA, priority 2019, published 2023).

The conditions of this data set: for solubility in water: 25° C.

In the case of `O=S(=O)([O-])c1ccc(N=Nc2c(O)ccc3ccccc23)cc1.[Na+]` [Acid Orange 7, sodium salt of 4-[(2-hydroxy-1-naphthyl)azo]benzenesulfonate], the solubility in water entry is reported as “more than 7 g/L”.
`Nc1cc(S(=O)(=O)[O-])cc2cc(S(=O)(=O)[O-])c(N=Nc3ccccc3)c(O)c12.[Na+].[Na+]` [Acid Red 33, disodium salt of 5-amino-4-hydroxy-3-(phenylazo)-naphthalene-2,7-disulphonate]: the solubility in water was 2.5 mg/mL.
For the compound `O=C([O-])c1c(Cl)c(Cl)c(Cl)c(Cl)c1-c1c2c(Br)cc(=O)c(Br)c-2oc2c(Br)c(O)cc(Br)c12.O=C([O-])c1c(Cl)c(Cl)c(Cl)c(Cl)c1-c1c2c(Br)cc(=O)c(Br)c-2oc2c(Br)c(O)cc(Br)c12.[Na+].[Na+]` [Acid Red 92, disodium salt of 3,4,5,6-tetrachloro-2-(1,4,5,8-tetrabromo-6-hydroxy-3-oxoxanthen-9-yl)benzoic acid], the solubility in water result is given as “greater than 10 g/L”.
Turning to `O=C([O-])C1=NN(c2ccc(S(=O)(=O)[O-])cc2)C(=O)C1N=Nc1ccc(S(=O)(=O)[O-])cc1.[Na+].[Na+].[Na+]` (centres unmarked) [Acid Yellow 23, trisodium salt of 4,5-dihydro-5-oxo-1-(4-sulfophenyl)-4-((4-sulfophenyl)azo)-1H-pyrazole-3-carboxylic acid], the “solubility in water (in words)” value (water at 25° C.) is reported as “readily soluble”.
With “mixture of the sodium salts of mono- and disulfonic acids of 2-(2-quinolyl)-1H-indene-1,3(2H)-dione [Acid Yellow 3]”, the solubility in water was 20 mg/mL.
